Peptide text beside a SMILES is read from it. * marks the point of attachment. Cbz = O=C(OCc1ccccc1)*
Tests used:
[1] = target: T1, organic anion-transporting polypeptide 1 in HepG2 cells (Homo sapiens, UniProt P46721); settings: uptake by HepG2 cells; Chamulitrat et al. 2009; read-out: half-maximal inhibitory concentration (IC50) for competition with UDCA-LPE uptake; cited from earlier work
T1 construct: host or cells: HepG2 (endogenous)
T1 sequence (P46721 1-670): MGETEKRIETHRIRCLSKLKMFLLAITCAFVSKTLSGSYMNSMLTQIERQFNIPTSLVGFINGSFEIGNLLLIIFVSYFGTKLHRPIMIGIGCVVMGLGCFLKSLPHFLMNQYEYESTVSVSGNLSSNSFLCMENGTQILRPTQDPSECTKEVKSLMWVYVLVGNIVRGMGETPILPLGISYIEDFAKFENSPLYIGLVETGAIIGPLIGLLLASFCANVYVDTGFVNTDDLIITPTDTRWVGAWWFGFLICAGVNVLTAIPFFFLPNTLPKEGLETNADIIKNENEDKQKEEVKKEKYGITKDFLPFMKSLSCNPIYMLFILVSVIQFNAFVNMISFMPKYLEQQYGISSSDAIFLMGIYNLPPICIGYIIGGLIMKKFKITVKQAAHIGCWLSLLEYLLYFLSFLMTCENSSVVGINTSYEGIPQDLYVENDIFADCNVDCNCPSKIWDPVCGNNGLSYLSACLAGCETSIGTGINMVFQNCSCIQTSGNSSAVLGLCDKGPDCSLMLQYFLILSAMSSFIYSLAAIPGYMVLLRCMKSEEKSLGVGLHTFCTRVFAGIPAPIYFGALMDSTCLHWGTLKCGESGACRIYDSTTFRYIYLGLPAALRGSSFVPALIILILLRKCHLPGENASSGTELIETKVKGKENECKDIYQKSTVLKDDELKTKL

[2] = system: DRM-PM proteins iPLA2ß, CD36, FABPPM, caveolin1; assay: DRM-PM protein levels in HepG2 cells by semi-quantitative densitometry; type: cell-based, human; settings: bafilomycin 50 nM, 16 h
HepG2 cells [3] = assay: Fatty acid ([3H]oleate:albumin) influx in HepG2 cells; type: cell-based, human
cytosolic LPC = assay: Cytosolic LPC concentration in HepG2 cells; type: cell-based, human; settings: Homo sapiens, HepG2, 0.5 h; 30 min treatment (Fig. 7); read-out: suppression of cytosolic LPC (IC50)
Experimental: LPC concentration in cytosolic supernatants was measured as previously described (Kishimoto T et al. Clin. Biochem. 2002; 35: 411-416).

[4] = system: transcripts of all complex subunits; assay: In vitro transcription in native HepG2 nuclear extracts exposed to LPC-conditioned delipidated cytosol; type: biochemical, human; settings: delipidated cytosol incubated with LPC 1 h
HepG2 cells [5] = assay: [3H]glucose influx in HepG2 cells; type: cell-based, human; settings: at 10 mM glucose; MßCD

In the case of `C[C@H](CCC(=O)O)[C@H]1CC[C@H]2[C@@H]3[C@@H](O)C[C@@H]4C[C@H](O)CC[C@]4(C)[C@H]3CC[C@]12C` [UDCA, ursodeoxycholic acid], the IC50 [1] is listed as 20 µM.

With `CO/C1=C\C(C)=C\[C@@H](C)[C@@H](O)[C@@H](C)C/C(C)=C/C=C/[C@H](OC)[C@@H]([C@@H](C)[C@@H](O)[C@H](C)[C@@]2(O)C[C@@H](O)[C@H](C)[C@@H](C(C)C)O2)OC1=O` [bafilomycin] the “increase in DRM-PM CD36” value [2] was 40.85 ± 10.56%, the “increase in DRM-PM FABPPM” value [2] was 25.99 ± 3.35% and the “increase in DRM-PM caveolin1” value [2] was 60.76 ± 7.03%. For the same molecule, the “increase in DRM-PM iPLA2ß” value [2] was 51.56 ± 9.85% and the fatty acid influx (HepG2 cells [3]; bafilomycin 50 nM, 16 h, untreated 26.95 ± 2.4) was 33.33 ± 5.1 nmol/mg protein/min.

In the case of `O=C([O-])[C@H](O)[C@@H](O)[C@H](O)[C@H](O)CO.[Na+]` [Na-gluconate, reference compound], the “passive translocation component of fatty acid influx” value (HepG2 cells [3]) is reported as “inhibited to negligible levels”.

`O=C1O/C(=C/Br)CCC1c1cccc2ccccc12` (stereo not shown) [BEL, bromoenol lactone, reference compound] gave an IC50 (HepG2 cells [3]; Homo sapiens, HepG2, 1-h treatment with increasing concentrations (Fig. 2A), read-out: inhibition of fatty acid influx (IC50)) of 52 µM and an IC50 (cytosolic LPC) of 43 µM.

For lysophosphatidylcholine [LPC], the “LPC concentration at which the transcripts of all complex subunits were downregulated” value [4] was 5 µmol/mg protein.

For “methyl-beta-cyclodextrin [MßCD, reference compound]”, the “additional reduction of fatty acid influx” value (HepG2 cells [3]) was 60% and the “influx of [3H]glucose” value (HepG2 cells [5]) was 135.70 ± 14.7 nmol/mg protein/min.

With `CC(C)C[C@@H](C=O)NC(=O)[C@H](CC(C)C)NC(=O)[C@H](CC(C)C)NC(=O)OCc1ccccc1` [MG132, reference compound] (Cbz-Leu-Leu-Leu-aldehyde) the “effect on fatty acid uptake” value (HepG2 cells [3]) was “no effect on uptake”.
